From patent publication EP0151964A2, “New derivatives of alpha-amino-gamma-butyrolactone, method for the preparation thereof and pharmaceutical compositions containing them” (priority 1984, dated 1985)

Key:
[1] = Sedation of laboratory animals; format: in vivo; conditions: dose of about 50 mg/kg
Method: The compound was administered to laboratory animals at a dose of about 50 mg/kg. The animals were sedated.
A good yield of α-n-pentylcarbonyl-amino-γ-butyrolactone is ob= tained. The compound was administered to laboratory animals at a dose of about 50 mg/kg. The animals were sedated.

[2] = Enhancement of the hypnotic effect of sodium pentobarbital (loss of righting reflex); format: in vivo; conditions: mouse
Method: 40 mg, kgof sodium pentobarbital was injected intraperitoneal ly into mice and note was taken of animals losing the righting re= flex and for how long. Other mice received a preliminary treat= ment with PTT-01 at a dosage of 25 and 50 mg/kg, intraperitoneally and thereafter sodium pentobarbital was given.

[3] = Antagonism towards electroshock (maximal electroshock, MES); format: in vivo; conditions: mouse; for Number of animals with Clonic convulsions / Number of animals with Tonic convulsions: treated animals in parentheses
Method: Electroshock was produced in mice by applying ear electrodes. Stimulation parameters which could induce the maximal electroshok (MES) were adopted. This was obtained by applying rectangular input shocks for 0.6 seconds. Each input lasted […] and the input frequency was 25/sec. Phenobarbital sodium was used as control substance. […]

[4] = Antagonism towards d-amphetamine: amphetamine-induced hypermobility; format: in vivo, mice; parameters: reference not given here
Method: (§1) This particular feature of the compound could be deduced from the influence the compound exerted on: (a) d-amphetamine toxicity to mice kept in group, and (b) response time of une avoidance re= flex.
Six groups of 4 mice each were treated with 5 mg/kg of d-am= phetamine sulfate by intraperitoneal administration. Six groups of 4 animals each received the same dose of d-amphetamine sulfate plus 25 mg/kg of PTT-01 intraperitoneally, 15 minutes after d-am= phetamine sulfate; six groups of 4 animals each received saline solution and were used as controls. Spontaneous mobility was ob= served in every animal according to the procedure described herein before. The number of times each animal crossed the light beam throughout the 10 minutes test was noted. As appears from Table 4, the treatment with PTT-01 aid not prevent d-amphetamine from stimulating spontaneous mobility.

[5] = Acute toxicity in animals; format: in vivo, rats ( Wistar-Morini Strain); conditions: for LD50: aqueous 1% suspension of tragacanth gum
Method: PTT-01 was administered to adult rats ( Wistar-Morini Strain) of both sexes after fasting overnight. It was administered in an aqueous 1% suspension of tragacanth gum orally by gastric probe or intraperitoneally.

[6] = Subacute toxicity in animals; format: in vivo; conditions: 8 rats, 50 mg/kg daily for 6 consecutive days
Method: Accor= dingly, 8 rats were given 50 mg/kg daily for 6 consecutive days.

[7] = Spontaneous mobility (interruptions of a light beam in 10 minutes); format: in vivo; conditions: mice, controls fell to 71.4%
Method: Several groups of 4 mice each were placed in an apparatus de signed to provide a measure of spontaneous mobility by counting the number of interruptions of a light beam for a period of 10 mi= nutes. After preliminary measurement of mobility, animals were injected with PTT-01 (25 and 50 mg/kg) intraperitoneally. Con= trols received saline solution. Then minutes thereafter the mea= surement of mobility was repeated. Five groups of mice were used as controls and 6 other groups were treated with varying doses of PTT-01.

Rotating bar test = format: in vivo; conditions: trained mice, group of five
Method: Mice were trained to remain on a rotating bar for at least 3 minutes. A group of five of the trained mice were given an intra peritoneal injection of 25 mg/kg of PTT-01 in a 1% suspension of tragacanth gum. Another group of five mice were given an intra= peritoneal injection of 50 mg/kg of PTT-01 in a 1% suspension of tragacanth gum. All control animals stayed on the bar for 3 mi= nutes.

[8] = Mortality from d-amphetamine in mice kept in group; format: in vivo; conditions: eight grouped mice, same amount (25 mg/kg) i.p. 10 minutes before 10 mg/kg d-amphetamine sulfate i.p.; all eight controls died
Method: as §1
However, PTT-01 reduced mortality from d-amphetamine. The same amount of PTT-01 was injected intraperitoneally. Then, 10 minutes later, an intraperitoneal injection of 10 mg/kg of d-amphe tamine sulfate was administered. Eight animals were used in this test and kept in a 25 x 20 x 14 om cage in an air-conditioned room (20°C, 6C,- humidity). […]

[9] = Avoidance reflex (response time in two-chamber conditioning cage); format: in vivo; conditions: four conditioned mice, controls 53.3±4.5 sec
Excerpt: as §1
A conditioning cage consisting of two chambers was used, with free access between the chambers. The floor of one compartment was electrified to make it possible to deliver a mild shook. Eice were conditioned by first giving a warning signal and then,af ter a short period of time the shock was applied. Mice learned to leave the electrified compartment after the warning bell soun= ded were then judged to be conditioned. The average period of ti me, in this experiment, for controls (4) within which they leave the compartment was 53.3±4.5 sec. Four conditioned mice were given PTT-01 intraperitoneally(25 mg/kg); time within which they left the compartment was 60.6 + 3.9 sec. Four conditioned mice treat= ed with 50 mg/kg of PTT-C1 left the compartment only after 77.5 ± 2.7 sec.

[10] = Antagonism towards strychnine: protection from death caused by hypodermic injection; format: in vivo; conditions: mouse, single oral 50 mg/kg dose, 1.2 mg/kg strichnine sulfate, groups of six
Method: (§2) This type of antagonism was evaluated in the mouse as follows: (1) protection from death caused by a hypodermic injection of strychnine; (2) evaluation of the LD50 of strychnine both in mice treated and untreated with PTT-01 and (3) influence on the time re quired to cause animals to die by slow intravenous perfusion of strychnine.
Groups of six mice were used. Results are given in Ta= ble 5.

[11] = Antagonism towards strychnine: time to death under slow intravenous infusion; format: in vivo; conditions: mice; for mean infusion time to cause death: infusion rate 0.25 ml/min
Method: as §2
(3) continuous intravenous infusion at constant rate (0.4 ml/min) of a strychnine sulfate solution (26.66 mg/l) was carried out by injection in a tail vein in mice until they died. One group of aninals received 50 mg/kg of PTT-01 as preliminary treatment 15 mi nutes before the beginning of the infusion. The mean infusion ti me to cause six controls to die was 134 ± 3.2 seconds (mean + SE). The mean infusion time required to obtain the same effect in animals pretreated with PTT-01 was 210 ± 6.1 seconds.
In another experiment the infusion rate of strychnine was low ered to 0.25 ml/min. Under this conditions, the mean infusion ti me was 246 ± 3.1 seconds in the case of controls (six animals) and 338 ± 24.3 seoondss in treated animals.
When the above mentioned infusion rate was maintained, while redu= cine the amount of PTT-01 to 25 mg/kg, the mean infusion time was 260 + 13.4 seconds in controls and 360 + 21.2 seconds in the treat ed animals.

[12] = Influence on the electromyogram, rabbit with cortical electrodes; format: in vivo; conditions: electrodes implanted in cerebral cortex, 50 mg/kg intraperitoneal, similar to 30 mg/kg intravenous phenobarbital sodium
Method: The effect was similar to the effect caused by 30 mg/kg of intravenous phenobarbital sodium.

[13] = Electrode recording in the unrestrained cat; format: in vivo; conditions: permanent electrodes, 50 or 100 mg/kg
[14] = Sleep in cats conditioned to sleep for 8 hours; format: in vivo; conditions: 25 and 35 mg/kg
[15] = Diuresis in water-loaded rats; format: in vivo
Choleresis = format: in vivo; conditions: single 50 mg/kg oral dose
Method: (§3) The effect of a single 50 mg/kg oral dose of PTT-01 was deter mined on (a) diuresis in water-loaded rats, (b) choleresis, (c) ex cretion rate of intravenously injected bromosulphonphthalein in bi le, (d) arterial blood pressure.

[16] = Excretion rate of intravenously injected bromosulphonphthalein in bile; format: in vivo; conditions: single 50 mg/kg oral dose
Method: as §3

Arterial blood pressure = format: in vivo; conditions: single 50 mg/kg oral dose
Method: as §3

[17] = 40 mg/kg i.p. 10 minutes before electroshock
[18] = I 25 mg/kg + II 40 mg/kg intraperitoneally
[19] = I 50 mg/kg + II 40 mg/kg intraperitoneally
[20] = 25 mg/kg i.p. 10 minutes before electroshock

CC(C)CC(=O)NC1CCOC1=O (stereo not drawn) [Example 2, α-isobutylcarbonyl-amino-γ-butyrolactone]
sedation [1]: sedated

CCCCCC(=O)NC1CCOC1=O (stereo not drawn) [Example 3, α-n-pentylcarbonyl-amino-γ-butyrolactone]
sedation [1]: sedated

CCCC(C)C1(CC)C(=O)NC(=O)NC1=O (stereo not shown) [II, sodium pentobarbital, reference compound]
Animals under hypnosis/ treated ([2]; II 40 mg/kg intraperitoneally alone): 3/4 | Duration of hypnosis in minutes (m± SE) ([2]; II 40 mg/kg intraperitoneally alone, zero assigned to animals not losing the righting reflex): 3.25 ± 3.4 min

CCC1(c2ccccc2)C(=O)NC(=O)NC1=O [Phenobarbital Na, Phenobarbital sodium, reference compound]
Number of animals Dead [3, 17]: 0/8 | Number of animals with Clonic convulsions [3, 17]: 8 (8) | Number of animals with Tonic convulsions [3, 17]: 0 (8)

C[C@H](N)Cc1ccccc1 [d-amphetamine, reference compound]
Mean number of crossings (± SE) in 10 minutes ([4]; mouse, in vivo): 657 ± 59

α-n-butylcarbonyl-amino-γ-butyrolactone [PTT-01]
effect in rats ([5]; 50 mg/kg by oral route): did not cause any particular effect | effect in rats ([5]; 100 mg/kg by oral route): mild sedative effect | duration of the sedative and hypnotic effects ([5]; rats, acute toxicity doses, animal returned to normal): not long lasting | sedative effect ([5]; rats, from the lowest intraperitoneal dose): the sedative effect was obtained | loss of the righting reflex ([5]; rats, highest oral dose): not cause the loss of the righting reflex | sedative effect ([5]; rats, highest oral dose): produced a sedative effect | loss of the righting reflex ([5]; rats, intraperitoneal, 1 g/kg): the loss of the righting reflex occurred | LD50 ([5]; rats, intraperitoneally): more than 2 g/kg | LD50 ([5]; rats, orally by gastric probe): more than 2 g/kg | sedative effect or other abnormal symptoms [6]: No sedative effect or other abnormal symptoms were observed | Animals under hypnosis/ treated [2, 18]: 4/4 | Duration of hypnosis in minutes (m± SE) [2, 18]: 52.5 ± 13 min | Animals under hypnosis/ treated [2, 19]: 4/4 | Duration of hypnosis in minutes (m± SE) [2, 19]: 75.2 ± 21.6 min | mobility, % of the base-line values ([7]; 25 mg/kg intraperitoneally): 31.9% | mobility, % of the base-line values ([7]; 50 mg/kg intraperitoneally): 23.1% | mice staying on the bar for 3 minutes (Rotating bar test; 25 mg/kg intraperitoneal): two out of the five | mice staying on the bar for 3 minutes (Rotating bar test; 50 mg/kg intraperitoneal): none | Mean number of crossings (± SE) in 10 minutes ([4]; mice, d-amphetamine 5 mg/kg i.p. + 25 mg/kg i.p. given 15 minutes after d-amphetamine): 836 ± 100 | animals died [8]: 5 of the eight | time within which they left the compartment ([9]; 25 mg/kg intraperitoneally): 60.6 + 3.9 sec | time within which they left the compartment ([9]; 50 mg/kg): 77.5 ± 2.7 s | protection against the lethal effect of strichnine sulfate [10]: protected all the animals | mean infusion time to cause death ([11]; 25 mg/kg, controls 260 + 13.4): 360 + 21.2 seconds | mean infusion time to cause death (mean + SE) ([11]; 50 mg/kg 15 minutes before infusion, strychnine sulfate 26.66 mg/l at 0.4 ml/min, controls 134 ± 3.2): 210 ± 6.1 s | mean infusion time to cause death ([11]; 50 mg/kg, controls 246 ± 3.1): 338 ± 24.3 s | Number of animals Dead [3, 20]: 0/8 | Number of animals with Clonic convulsions [3, 20]: 8 (8) | Number of animals with Tonic convulsions [3, 20]: 0 (8) | electromyographic tracing [12]: tracing to become flat | sedation and electromyographic alterations [13]: sedation oc= curred without electromyographic alterations | number of cases of REM sleep [14]: reduced the number of cases of REM sleep | total sleeping time [14]: did not modify the total sleeping time | diuresis in water-loaded rats ([15]; single 50 mg/kg oral dose): No treatment caused any signi= ficant change | rate of urine excretion ([15]; water-loaded rats, daily oral dose of 50 mg/kg for five subsequent days): slowed | choleresis (Choleresis): No treatment caused any signi= ficant change | excretion rate of intravenously injected bromosulphonphthalein in bile [16]: No treatment caused any signi= ficant change | arterial blood pressure (Arterial blood pressure): No treatment caused any signi= ficant change
